Experimental data as given in patent US20170158599A1, “COMPOSITIONS AND METHODS COMPRISING SALICYLATES AND POLYSALICYLATES” (Biocogent, LLC, priority 2014, published 2017).

Test system: peripheral blood mononuclear cells (PBMC)
Test: Lipid mediators of the resolution pathways in PBMC with PMA/A23187 stimulation
Format: cell-based
Source text: The next two sets of adjacent bars show a comparison of the effects of treatment with PMA plus A23187 in the presence of salicylic acid (on left of each group) and polysalicylic acid (on right of each group) in amounts of 1.6 micrograms per milliliter (μg/mL) and 8 micrograms per milliliter (μg/mL), respectively. […] The resultant SA derivative was evaluated at different doses on the synthesis of 8 intermediate lipids of the resolution pathways in PMBC with PMA/A23187 stimulation. PMBC cells were seeded and allowed to settle for 1 hour; the test compounds were then added and allowed to incubate for an additional hour. The inflammatory stimulus (PMA plus A23187) was added for one hour, and supernatants were collected and analyzed for lipid intermediates.

**Q.** With O=C(O)c1ccccc1O [salicylic acid, 2-hydroxybenzoic acid] as the compound, how does the 14-HDOHE levels/production (PMA plus A23187, 1.6 and 8 μg/mL (FIG. 1)) read?
**A.** The 14-HDOHE levels/production was “noticeable increase over the control”.

**Q.** What about the 12-HETE levels/production (PMA plus A23187, 1.6 and 8 μg/mL (FIG. 2)) of the same compound?
**A.** The 12-HETE levels/production was “noticeable increase over the control”.
